The conditions of data set [1]: rhesus monkey, in vivo.
For data set [2], the system named is EBOV (Makona variant, EBOV/Mak). The format is cell-based, Ebola virus.
For data set [3] the following is noted: rhesus monkey, in vivo. The source holds these as a separate data set.
The conditions of data set [4]: human, in vivo, 10 mg/kg; cited from earlier work.
A short description of the next data set: in vivo. The settings on record: both, rhesus monkey, po; for AUC(0-t): AUClast.
Data set [5] can be described thus: in vitro. The conditions noted are these: African green monkey.
Another data set concerns EBOV. The settings on record: cited from earlier work.
Data set [6] deals with monocyte-derived macrophages (MDMs).
The next data set has as its system EBOV/Mak. On the set-up: species or system Rhesus macaques. The conditions noted are these: rhesus monkey, in vivo.
The conditions of data set [7]: rhesus monkey, in vivo. The source holds these as a separate data set.
Data set [8] can be described thus: in vitro. The settings on record: human.
The nature of data set [9]: in vitro. The conditions noted are these: human. This is another data set of the same source.
Setting [10] is: read-out: IC50 range over cell types.
Where [11] appears, read: 40 mg/kg, elimination phase half-life (t1/2), range among individual animals.

SMILES strings stand for the structures. Values joined by “and” are separate entries in the source; they are usually repeats but may differ in a detail not shown here. Identical values can stand only once. “Also recorded” adds a separate entry of the source. Counter-ions that a name gives are not always drawn. Like-named read-outs stand apart in the source and are kept apart here. A value given as a limit tells only on which side of the number the result lay.

As to `CCN(CC)Cc1cc(Nc2ccnc3cc(Cl)ccc23)ccc1O` [Amodiaquine dihydrochloride hydrate, amodiaquine dihydrochloride dihydrate], in [1], the “ALT and AST elevation” value is reported as 2.6- to 6.3 fold; the blood pressure result is “lower blood pressure readings than at predose”; the clinical observations entry is reported as “hypoactivity, shivering (muscle tremors) and/or diarrhea”; the tolerability entry is listed as “well-tolerated”. The Max effect in data set [2] is 100% at 30 and 100% at 40. Besides, the IC50 in data set [2] (setting [10]) was in the range of 3.2 to 27.9 µM. In addition, the “plasma levels of AQ” value in data set [3] is given as “negligible levels of AQ in all but five plasma samples”. Further, the maximum concentration (Cmax) in [4] is recorded as 29.2 ± 10.9 ng/mL. In addition, in the data set “in vivo” (20 mg/kg, mean), the area under the curve AUC(0-t) stood at 74 ng·h/mL and the highest concentration (Cmax) is 17.1 ng/mL. Further, in “in vivo” (20 mg/kg, Tmax, mean), the Tmax turned out to be 5 h. This compound gave an area under the curve AUC(0-inf) in the data set “in vivo” (40 mg/kg, AUCinf, mean) of 324 ng·h/mL. In addition, in “in vivo” (40 mg/kg, mean), the AUC(0-t) is 258 ng·h/mL and the Cmax stood at 53.7 ng/mL. Also, in the data set “in vivo” (40 mg/kg, Tmax (range)), the time to peak (Tmax) is 0.5 to 8 h. The Tmax in “in vivo” (40 mg/kg, Tmax, mean) was determined as 5 h. The compound further gave a half-life in the data set “in vivo” (setting [11]) of 3 to 28 h. Moreover, the CC50 in “in vitro [5]” came to 40.1 µM. For the same compound, in the data set on EBOV, the “in vitro EBOV inhibition” value is “potent EBOV inhibitor” and the “in vitro antiviral activity against EBOV” value is given as “known to have in vitro antiviral activity against EBOV”. In addition, the “cytotoxicity” value in data set [6] is “elevated cytotoxicity”. Further, in the data set with EBOV/Mak, the “RNA levels at necropsy” value is 10^9–10^11 viral RNA copies/ml; the “clinical signs, febrile illness, weight loss versus control” value is “Clinical signs did not differ significantly between the groups”; the “hematology and serum chemistry versus control” value was “followed the same trends as the control animal values”; the “plasma viral load (RT-qPCR, plaque assay), words” value was “did not reduce plasma viral RNA copies or infectious virus titer”. The “survival / efficacy” value in the data set on EBOV/Mak is “All animals were euthanized or succumbed to disease by day 8 postexposure; also recorded: did not result in a survival benefit or decrease of disease signs; also recorded: did not result in a survival benefit or decrease of disease symptoms; also recorded: did not have a beneficial effect on survival or the symptoms of EVD”. The “Median time to disposition” value in the data set on EBOV/Mak (po, 20 mg/kg) was 7 days and 6 days. Moreover, the “Tmax, mean” value in data set [7] (both, po, 20 mg/kg) amounted to 3 h. Besides, the “Cmax (range)” value in data set [7] (20 mg/kg) is 7.8‒31.9.
As for `C[C@H]1[C@H](OC(=O)CCC(=O)O)O[C@@H]2O[C@@]3(C)CC[C@H]4[C@H](C)CC[C@@H]1[C@@]24OO3` [Artesunate, artesunate], in data set [2], the “in vitro antiviral activity against EBOV” value was “weak or undetectable; also recorded: minimal to no in vitro antiviral activity”. Also, the half-inhibitory concentration (IC50) in [2] (read-out: IC50) amounted to 17.2 ± 1.2 µM. The CC50 in the data set “in vitro [8]”, in the data set “in vitro [9]” and in “in vitro [5]” was over 40 µM in each case. Moreover, the “activity against EBOV” value in the data set with EBOV is recorded as “no activity against EBOV has been demonstrated”.
On to `C[C@H]1[C@@H](O)O[C@@H]2O[C@@]3(C)CC[C@H]4[C@H](C)CC[C@@H]1[C@@]24OO3` [Dihydroartimesinin, dihydroartemisinin], for which, in data set [2], the Max effect was 64% at 40 and 49% at 40. The “in vitro antiviral activity against EBOV” value in [2] was “weak or undetectable; also recorded: minimal to no in vitro antiviral activity”. For the same compound, in data set [2] (read-out: IC50), the IC50 was 31.5 µM and 35.2 µM. For the same compound, the CC50 in “in vitro [8]” and in “in vitro [5]” was over 40 µM in each case.
As for `CCNCc1cc(Nc2ccnc3cc(Cl)ccc23)ccc1O` [N-Desethylamodiaquine hydrochloride, N-desethylamodiaquine hydrochloride], the Max effect in [2] was 100% at 40 and 80% at 40. For the same compound, the half-maximal inhibitory concentration (IC50) in data set [2] (setting [10]) was 2.8 to 30 µM. Also, the “plasma levels of DEAQ” value in data set [3] (Chinese origin) was “detectable in all treated animals from both groups 2 and 3”. Moreover, the maximum concentration (Cmax) is 268.7 ± 70.8 ng/mL in data set [4]; 287 ng/mL in “in vivo” (20 mg/kg, mean); 618 ng/mL in the data set “in vivo” (40 mg/kg, mean). Besides, the half-life in “in vivo” (20 mg/kg, t1/2, mean) is 15.6 h; in the data set “in vivo” (setting [11]), 12 to 51 h. For the same compound, the Tmax in “in vivo” (40 mg/kg, Tmax (range)) is 0.5 to 8 h; in “in vivo” (40 mg/kg, Tmax, mean), 5 h. Further, the CC50 in the data set “in vitro [5]” was determined as 33.1 µM. Moreover, the “in vitro antiviral activity against EBOV” value in the data set on EBOV is listed as “known to have in vitro antiviral activity against EBOV”. Moreover, in data set [6], the “cytotoxicity” value is “elevated cytotoxicity”. Besides, the “AUClast and AUCinf, fold higher for DEAQ than for AQ” value in data set [7] (both, po) is on record as 2.5- to 3 fold. Further, in [7] (both, po, 20 mg/kg), the t1/2 is on record as 15 h. Besides, the “Cmax (range)” value in [7] (20 mg/kg) is reported as 203‒369.

Broadly, the IC50 is the concentration at which inhibition is half-maximal. What is called Cmax is the maximum level reached in the sampled fluid or tissue. As usually defined, the AUC(0-t) is exposure summed from dosing to a finite time, without extrapolation to infinity. As usually defined, the Tmax is the time from dosing to the highest level. As usually defined, the AUC(0-inf) is the area under the concentration-time curve extrapolated to infinity. Broadly, the half-life is the time needed for the level to fall by half in the phase considered.
